# Columns and labels:
# Assay in all cases: relative viability (nuclei count vs DMSO), 5 days (fraction); higher = more cells survive
# A549 = tested on: A549
# Summary of the method: (§1)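 Relative viability divides the nuclei count in treated wells by that in vehicle wells. Lung cancer cell lines were seeded in 1536-well plates, dosed by pin tool the next day, and fixed and stained after 5 days in one step with final 0.05% Triton X-100, 1% formaldehyde and 1 ug/ml Hoechst. Dosing was a single drug or a fixed anchor-drug dose plus five library-drug doses (not always all listed) in √10 steps, and values are medians of duplicate plates imaged at 4×.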
# Calu-6 = tested on: Calu-6
# Summary of the method: as §1
# EBC-1 = tested on: EBC-1
# Summary of the method: as §1
# IA-LM = tested on: IA-LM
# Summary of the method: as §1
# NCI-H1299 = tested on: NCI-H1299
# Summary of the method: as §1
# NCI-H1648 = tested on: NCI-H1648
# Summary of the method: as §1
# NCI-H1703 = tested on: NCI-H1703
# Summary of the method: as §1
# NCI-H2009 = tested on: NCI-H2009
# Summary of the method: as §1
# NCI-H460 = tested on: NCI-H460
# Summary of the method: as §1
# NCI-H522 = tested on: NCI-H522
# Summary of the method: as §1
# NCI-H661 = tested on: NCI-H661
# Summary of the method: as §1
# NCI-H1623 = tested on: NCI-H1623
# Summary of the method: as §1
smiles,measurement,setting,value
CC1(C)CCC(c2ccc(Cl)cc2)=C(CN2CCN(c3ccc(C(=O)NS(=O)(=O)c4ccc(N[C@H](CCN5CCOCC5)CSc5ccccc5)c(S(=O)(=O)C(F)(F)F)c4)cc3)CC2)C1 [Navitoclax] + O=C(c1cc(Cc2n[nH]c(=O)c3ccccc23)ccc1F)N1CCN(C(=O)C2CC2)CC1 [Olaparib] (partner 8 µM),relative viability,A549; first compound 0.005 µM,0.37
same,relative viability,A549; first compound 0.01581 µM,0.33
same,relative viability,A549; first compound 0.05 µM,0.119
same,relative viability,A549; first compound 0.1581 µM,0.33
same,relative viability,A549; first compound 0.5 µM,0.302
same,relative viability,Calu-6; first compound 0.005 µM,0.57
same,relative viability,Calu-6; first compound 0.01581 µM,0.518
same,relative viability,Calu-6; first compound 0.05 µM,0.558
same,relative viability,Calu-6; first compound 0.1581 µM,0.457
same,relative viability,Calu-6; first compound 0.5 µM,0.478
same,relative viability,EBC-1; first compound 0.005 µM,0.745
same,relative viability,EBC-1; first compound 0.01581 µM,0.864
same,relative viability,EBC-1; first compound 0.05 µM,0.658
same,relative viability,EBC-1; first compound 0.1581 µM,0.683
same,relative viability,EBC-1; first compound 0.5 µM,0.663
same,relative viability,IA-LM; first compound 0.005 µM,0.814
same,relative viability,IA-LM; first compound 0.01581 µM,0.836
same,relative viability,IA-LM; first compound 0.05 µM,0.792
same,relative viability,IA-LM; first compound 0.1581 µM,0.789
same,relative viability,IA-LM; first compound 0.5 µM,0.866
same,relative viability,NCI-H1299; first compound 0.005 µM,0.943
same,relative viability,NCI-H1299; first compound 0.01581 µM,1
same,relative viability,NCI-H1299; first compound 0.05 µM,0.949
same,relative viability,NCI-H1299; first compound 0.1581 µM,0.977
same,relative viability,NCI-H1299; first compound 0.5 µM,0.956
same,relative viability,NCI-H1648; first compound 0.005 µM,0.632
same,relative viability,NCI-H1648; first compound 0.01581 µM,1.06
same,relative viability,NCI-H1648; first compound 0.1581 µM,0.922
same,relative viability,NCI-H1648; first compound 0.5 µM,1.03
same,relative viability,NCI-H1703; first compound 0.005 µM,0.536
same,relative viability,NCI-H1703; first compound 0.01581 µM,0.626
same,relative viability,NCI-H1703; first compound 0.05 µM,0.508
same,relative viability,NCI-H1703; first compound 0.1581 µM,0.512
same,relative viability,NCI-H1703; first compound 0.5 µM,0.536
same,relative viability,NCI-H2009; first compound 0.005 µM,0.698
same,relative viability,NCI-H2009; first compound 0.01581 µM,0.692
same,relative viability,NCI-H2009; first compound 0.05 µM,0.691
same,relative viability,NCI-H2009; first compound 0.1581 µM,0.6
same,relative viability,NCI-H2009; first compound 0.5 µM,0.689
same,relative viability,NCI-H460; first compound 0.005 µM,0.424
same,relative viability,NCI-H460; first compound 0.01581 µM,0.499
same,relative viability,NCI-H460; first compound 0.05 µM,0.359
same,relative viability,NCI-H460; first compound 0.1581 µM,0.388
same,relative viability,NCI-H460; first compound 0.5 µM,0.402
same,relative viability,NCI-H522; first compound 0.005 µM,0.657
same,relative viability,NCI-H522; first compound 0.01581 µM,0.745
same,relative viability,NCI-H522; first compound 0.05 µM,0.757
same,relative viability,NCI-H522; first compound 0.1581 µM,0.542
same,relative viability,NCI-H522; first compound 0.5 µM,0.62
same,relative viability,NCI-H661; first compound 0.005 µM,0.751
same,relative viability,NCI-H661; first compound 0.01581 µM,0.797
same,relative viability,NCI-H661; first compound 0.05 µM,0.712
same,relative viability,NCI-H661; first compound 0.1581 µM,0.695
same,relative viability,NCI-H661; first compound 0.5 µM,0.751
NC(=O)Nc1cc(-c2cccc(F)c2)sc1C(=O)N[C@H]1CCCNC1 [AZD7762] + CCNC(=O)c1noc(-c2cc(C(C)C)c(O)cc2O)c1-c1ccc(CN2CCOCC2)cc1 [Luminespib] (partner 0.01 µM),relative viability,NCI-H1623; first compound 0.01 µM,0.421
same,relative viability,NCI-H1623; first compound 0.03162 µM,0.591
same,relative viability,NCI-H1623; first compound 0.1 µM,0.602
same,relative viability,NCI-H1623; first compound 0.3162 µM,0.604
same,relative viability,NCI-H1623; first compound 1 µM,0.418
same,relative viability,NCI-H2009; first compound 0.01 µM,1.06
same,relative viability,NCI-H2009; first compound 0.03162 µM,0.975
same,relative viability,NCI-H2009; first compound 0.1 µM,1.12
same,relative viability,NCI-H2009; first compound 0.3162 µM,0.935
same,relative viability,NCI-H2009; first compound 1 µM,0.663
same,relative viability,NCI-H460; first compound 0.01 µM,0.0439
same,relative viability,NCI-H460; first compound 0.03162 µM,0.0339
same,relative viability,NCI-H460; first compound 0.1 µM,0.036
same,relative viability,NCI-H460; first compound 0.3162 µM,0.026
same,relative viability,NCI-H460; first compound 1 µM,0.0276
same,relative viability,NCI-H522; first compound 0.01 µM,1.14
same,relative viability,NCI-H522; first compound 0.03162 µM,1.23
same,relative viability,NCI-H522; first compound 0.1 µM,1.14
same,relative viability,NCI-H522; first compound 0.3162 µM,1.35
same,relative viability,NCI-H522; first compound 1 µM,1
same,relative viability,NCI-H661; first compound 0.01 µM,1.01
same,relative viability,NCI-H661; first compound 0.03162 µM,1
same,relative viability,NCI-H661; first compound 0.1 µM,1.02
same,relative viability,NCI-H661; first compound 0.3162 µM,0.971
same,relative viability,NCI-H661; first compound 1 µM,0.417
CC1(C)CCC(c2ccc(Cl)cc2)=C(CN2CCN(c3ccc(C(=O)NS(=O)(=O)c4ccc(N[C@H](CCN5CCOCC5)CSc5ccccc5)c(S(=O)(=O)C(F)(F)F)c4)cc3)CC2)C1 [Navitoclax] + N=C(N)NC(=N)NCCc1ccccc1 [Phenformin] (partner 250 µM),relative viability,A549; first compound 0.005 µM,0.146
same,relative viability,A549; first compound 0.01581 µM,0.19
same,relative viability,A549; first compound 0.05 µM,0.144
same,relative viability,A549; first compound 0.1581 µM,0.157
same,relative viability,A549; first compound 0.5 µM,0.146
same,relative viability,NCI-H1623; first compound 0.005 µM,0.624
same,relative viability,NCI-H1623; first compound 0.01581 µM,0.671
same,relative viability,NCI-H1623; first compound 0.05 µM,0.58
same,relative viability,NCI-H1623; first compound 0.1581 µM,0.567
same,relative viability,NCI-H1623; first compound 0.5 µM,0.555
same,relative viability,NCI-H2009; first compound 0.005 µM,0.495
same,relative viability,NCI-H2009; first compound 0.01581 µM,0.519
same,relative viability,NCI-H2009; first compound 0.05 µM,0.435
same,relative viability,NCI-H2009; first compound 0.1581 µM,0.47
same,relative viability,NCI-H2009; first compound 0.5 µM,0.484
same,relative viability,NCI-H460; first compound 0.005 µM,0.509
same,relative viability,NCI-H460; first compound 0.01581 µM,0.512
same,relative viability,NCI-H460; first compound 0.05 µM,0.529
same,relative viability,NCI-H460; first compound 0.1581 µM,0.522
same,relative viability,NCI-H460; first compound 0.5 µM,0.515
same,relative viability,NCI-H522; first compound 0.005 µM,0.633
same,relative viability,NCI-H522; first compound 0.01581 µM,0.603
same,relative viability,NCI-H522; first compound 0.05 µM,0.701
same,relative viability,NCI-H522; first compound 0.1581 µM,0.695
same,relative viability,NCI-H522; first compound 0.5 µM,0.699
same,relative viability,NCI-H661; first compound 0.005 µM,0.253
same,relative viability,NCI-H661; first compound 0.01581 µM,0.298
same,relative viability,NCI-H661; first compound 0.05 µM,0.262
same,relative viability,NCI-H661; first compound 0.1581 µM,0.257
same,relative viability,NCI-H661; first compound 0.5 µM,0.258
